Test results: patent US7642239B2, “Inhibition of placenta growth factor (PLGF) mediated metastasis and/or angiogenesis” (Center for Molecular Medicine and Immunology, priority 2005, dated 2010)
Marks after values point to notes of the source that are not given here. Ends that are not written are not given here.

Experiments:
MDA-MB-468 xenografts = format: in vivo, mice; details: 200 μg/dose i.p., twice-weekly
Method: FIG. 5. Treatment of mice bearing MDA-MB-468 xenografts with peptides BP1 or BP3. Mice were treated every 3-4 days with 200 ug BP as described in Methods. Tumor volume was measured 2×/week. *P<0.05 at days 10, 14, 17 and 24 (change in tumor volume (ANOVA)). FIG. 5A—tumors treated with binding peptide 1. FIG. 5B—tumors treated with binding peptide 3.
Mice bearing MDA-MB-468 xenografts (average tumor volume: 0.19 cm^3) were treated with i.p. injections of individual peptides (200 μg/dose) (FIG. 5). After 4 weeks of twice-weekly treatment, tumor growth was inhibited by 49% and 58% in mice treated with BP1 (FIG. 5A) or BP3 (FIG. 5B), respectively. The effect of BP3 on tumor growth was apparent after 2 weeks of treatment (FIG. 5B), whereas the inhibitory effect of BP1 was evident after one week (FIG. 5A). The average changes in individual tumor volumes during treatment with BP1 were significant (P<0.05) at days 10, 14, 17 and 24 (FIG. 5A). Treatment with BP2 was ineffective; tumors continued to grow at almost the same rate as the mock-treated controls (results not shown). BP4 treatment produced a 20% inhibition of tumor growth (results not shown).

[1] = target: T1, recombinant human Flt-1 fusion protein (Homo sapiens, UniProt P17948); assay: Free peptide binding and competition ELISA, Flt-1-coated wells
T1 construct: purchased R & D Systems
Method: Competition assays were done with 2.5 or 25 U/ml heparin (Sigma, St. Louis, Mo.). BP1, 3, 4, and a scrambled version of BP3 (scrBP3) were synthesized with a linker followed by the FLAG epitope ([…] SEQ ID NO:5) at the C-terminus. Thirty minutes after addition of the first reagent, the second reagent was added, followed by another 30 minute incubation. Peptide binding was assessed by probing for the FLAG epitope (Prickett et al., Biotechniques 7:580-9, 1989; Castrucci et al., J. Virol. 66:4647-53, 1992). Absorbance was read at 490 nm.

[2] = system: MDA-MB-231 s.c. xenograft; assay: Subcutaneous MDA-MB-231 xenograft growth and lung metastasis; format: in vivo, nude mice
Method: The tissue-culture-grown human breast tumor cell line, MDA-MB-231, was implanted subcutaneously (s.c.) on the flanks of nude mice. When tumors were visible, the mice were weighed and the tumors measured. Treatment with peptides was begun when tumors averaged about 0.06-0.12 cm^3 in volume. Mice were treated with 200-μg peptide in PBS by i.p. injection at 3-4-day intervals for 4 weeks. Animals were weighed and the tumors measured at each treatment. In a second experiment, the control peptide, CPA, was included. Three days after the final treatment, tumors and lungs were harvested. Tumor burden of the lungs (from experiment 1) was determined by counting colonies (<20 cells), clusters (>20-100 cells), and nodules (>100 cells) seen in all the lung tissue on a total of 4 slides or sections for each mouse. Data are presented as the average number of each size of metastasis for each treatment group (3-4 mice/group). The total number of each was summed for each treatment group, and divided by the total number of mice in that group. The percent inhibition for metastasis was determined by the formula: % inhibition=(# mock-treated−# treated/# mock-treated)×100.
To test for therapeutic activity of the peptide, BP1, mice were implanted with human breast cancer cells, MDA-MB-231, which produces lung metastases spontaneously when implanted as a subcutaneous tumor. When the tumors averaged 0.12 cm^3 in volume, either mock-treatment or therapy with BP1 was initiated at 200 μg, two times per week for 4 weeks. […] In a subsequent experiment, treatment was commenced when tumors were 0.07-0.08 cm^3. After 4 weeks of treatment, as described, the mean volume of the mock- and CPA-treated tumors was 0.25 and 0.33 cm^3, respectively, whereas BP1-treated tumors averaged 0.04 cm^3 (P<0.05 BP1 vs. mock- or CPA-treated tumors) (FIG. 3A).

MCF-7 = assay: Wound-healing (motility) assay, MCF-7; format: cell-based, human; details: for Relative activity: unit assumed; for Migrating cells: 18-24 h
Method: MCF-7, MDA-MB-23 1, and MDA-MB-468 breast tumor cell lines or HECs were seeded onto sterile glass coverslips in Petri dishes or six-well plates. When the cells were 70-80% confluent, the monolayers were scratched with a sterile plastic pipet tip.
Inhibitor concentrations were 50 μM PD98059 (PD98) (mitogen activated protein kinase-kinase 1 [MEK1] inhibitor), 5 nM Wortmannin (phosphatidyl inositol 3 kinase [PI3K] inhibitor), or human recombinant soluble Flt-1 (sFlt-1) (R&D Systems). […] Cells were pre-incubated with PD98 and Wortmannin for 15-30 min before addition of PlGF. Stained (Wright-Giemsa) and mounted coverslips were examined microscopically. Five to ten 100× fields were evaluated by counting the number of cells separated from the wound edges and which appeared to be migrating toward the center of the wound. Results are reported as the average number of cells migrating into the wound/100× field. In some cases data from separate experiments were combined to accommodate inclusion of various treatments in the tables.
Antibody concentration was 1 μg/ml. MEK1 inhibitor, PD98059 (PD98), 50 μM. PI3K inhibitor, Wortmannin, 5 nM. […] Values for antibody and inhibitor treatments were from separate experiments which included all relevant controls. […] UT denotes untreated controls. *P<0.01 (ANOVA) compared to UT; † P<0.02 (ANOVA) compared to PlGF only. ‡ P<0.001 (ANOVA) compared to PlGF only.

[3] = system: microvessels in PlGF-containing Matrigel plugs; assay: Matrigel basement membrane plug angiogenesis assay; format: in vivo, nude mice; details: PlGF-containing implants ± BP1, s.c.; PBS controls 16.2±11.4
From the text: To further investigate the effect of PlGF binding peptides on endothelial cell migration and angiogenesis, Matrigel basement membrane plugs containing PlGF, BP1, BP2, or PBS were implanted s.c. on the flanks of nude mice. The number of interior microvessels in the PBS controls was 16.2±11.4/mm^2. PlGF-only implants contained 28.9±17.2/mm^2 (1.8-fold vs. mock-treated implants), and implants with PlGF and BP1 contained only 12.3±13.0 microvessels/mm^2 (P<0.02).

T1 sequence (P17948 with tags, fused parts or gaps limits assumed): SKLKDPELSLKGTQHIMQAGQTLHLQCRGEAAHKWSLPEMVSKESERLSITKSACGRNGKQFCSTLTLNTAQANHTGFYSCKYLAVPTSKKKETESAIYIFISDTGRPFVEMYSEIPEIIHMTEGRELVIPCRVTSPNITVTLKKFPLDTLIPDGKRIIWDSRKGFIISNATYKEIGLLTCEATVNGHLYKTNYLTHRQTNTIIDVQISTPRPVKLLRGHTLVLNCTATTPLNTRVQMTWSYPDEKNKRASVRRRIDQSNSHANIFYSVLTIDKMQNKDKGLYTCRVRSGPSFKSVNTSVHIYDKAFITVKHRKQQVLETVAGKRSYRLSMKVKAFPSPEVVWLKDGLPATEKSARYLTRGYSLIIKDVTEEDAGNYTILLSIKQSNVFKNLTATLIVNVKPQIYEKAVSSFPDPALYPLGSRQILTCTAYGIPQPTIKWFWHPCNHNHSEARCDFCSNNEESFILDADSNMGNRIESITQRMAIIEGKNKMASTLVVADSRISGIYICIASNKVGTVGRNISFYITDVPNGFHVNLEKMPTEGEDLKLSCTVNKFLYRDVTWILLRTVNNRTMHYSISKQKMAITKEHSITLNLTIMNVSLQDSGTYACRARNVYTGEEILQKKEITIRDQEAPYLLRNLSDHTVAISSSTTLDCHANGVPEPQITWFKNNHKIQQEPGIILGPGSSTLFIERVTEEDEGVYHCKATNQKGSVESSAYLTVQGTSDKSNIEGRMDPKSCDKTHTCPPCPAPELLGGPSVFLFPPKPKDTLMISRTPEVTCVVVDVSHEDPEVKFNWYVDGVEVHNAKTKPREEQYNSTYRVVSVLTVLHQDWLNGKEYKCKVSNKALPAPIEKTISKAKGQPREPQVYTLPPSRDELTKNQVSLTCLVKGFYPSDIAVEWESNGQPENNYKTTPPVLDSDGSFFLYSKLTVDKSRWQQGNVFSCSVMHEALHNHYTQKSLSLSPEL

SHRYRLAIQLHASDSSSSCV [BP1]
duration of treatment after which effect on tumor growth was apparent (MDA-MB-468 xenografts): one week
binding to Flt-1, fold over background [1]: 10 fold
inhibition at 1 µM ([1]; 1 μM BP1 followed by 2.5 U/ml heparin, read-out: inhibition of BP1 binding to Flt-1, BP1 added prior to heparin): 13%
binding to immobilized Flt-1 (A490), BP1 only ([1]; 5 μM BP1 only): 0.527±0.025
binding to immobilized Flt-1 (A490), with added free Flt-1 ([1]; 5 μM BP1 with added free Flt-1 (2 nM)): 0.327±0.127
decrease in BP1 binding to Flt-1, heparin added before BP1 ([1]; 2.5 U/ml heparin followed by 1 μM BP1): 64%
effect of PlGF on the binding of BP1 to Flt-1 ([1]; PlGF between 1 and 100 nM): no significant effect
decrease in binding of BP1 to immobilized Flt-1 by free Flt-1 ([1]; free Flt-1 2 nM, 5 μM BP1): 38%
binding to Flt-1 (A490) ([1]; peptide with C-terminal FLAG epitope): 0.886±0.096
reduction in tumor size compared to mock-treated controls ([2]; start at 0.12 cm^3, 200 μg two times per week for 4 weeks): 37%
mean tumor volume after 4 weeks of treatment ([2]; subsequent experiment, start at 0.07-0.08 cm^3, 200 μg i.p., mock 0.25): 0.04 cm^3
lung colonies (<20 cells) per mouse ([2]; total lung tissue/mouse, mock 36±6): 5±2
lung clusters (>20-100 cells) per mouse ([2]; total lung tissue/mouse, mock 76±19): 9±2
lung nodules (>100 cells) per mouse ([2]; total lung tissue/mouse, mock 78±25): 5±2
decrease in the number of metastatic lung nodules ([2]; vs mock-treated): 94%
Relative activity (MCF-7; PlGF 2 nM ± test agent, relative to PlGF-only value): 45%
Relative activity (MCF-7; VEGF 2 nM ± test agent, relative to VEGF-only value): 102%
effect on PlGF-stimulated motility (in words) (MCF-7; antibody 1 μg/ml, peptide 2 μM): inhibited
Migrating cells (MCF-7; growth factor PlGF 2 nM ± test agent (Flt-1 2 nM, peptide 2 μM, antibody 1 μg/ml)): 10.2 ± 7.8† cells/100× field
Migrating cells (MCF-7; growth factor VEGF 2 nM ± test agent): 12.9 ± 2.9 cells/100× field
interior microvessels [3]: 12.3±13.0 /mm^2
